B1: FGF15: Recombinant FGF15 (Abcam), comparison FGF subtype (protein, UniProt O35622 26-218, looked up)
Fibroblast growth factor 15: RPLAQQSQSVSDEDPLFLYGWGKITRLQYLYSAGPYVSNCFLRIRSDGSVDCEEDQNERNLLEFRAVALKTIAIKDVSSVRYLCMSADGKIYGLIRYSEEDCTFREEMDCLGYNQYRSMKHHLHIIFIQAKPREQLQDQKPSNFIPVFHRSFFETGDQLRSKMFSLPLESDSMDPFRMVEDVDHLVKSPSFQK
B2: FGF23: Recombinant FGF23 (R&D), comparison FGF subtype (protein, UniProt Q9GZV9 25-251, looked up)
Fibroblast growth factor 23: YPNASPLLGSSWGGLIHLYTATARNSYHLQIHKNGHVDGAPHQTIYSALMIRSEDAGFVVITGVMSRRYLCMDFRGNIFGSHYFDPENCRFQHQTLENGYDVYHSPQYHFLVSLGRAKRAFLPGMNPPPYSQFLSRRNEIPLIHFNTPIPRRHTRSAEDDSERDPLNVLKPRARMTPAPASCSQELPSAEDNSPMASDPLGVVRGGRVNTHAGGTGPEGCRPFAKFI

Legend:
[1] = test system: oligodendrocyte precursor cells; assay: BrdU uptake by oligodendrocyte precursor cells with culture supernatant of cardiomyocytes and FGFR inhibitors (Example 1); type: cell-based, C57BL/6j mice; conditions: SU5402 at 10, 30, 100 μM or PD173074 at 0.03, 0.1, 0.3, 1 μM added with supernatant; FIG. 1
Description: Hearts extracted from C57BL/6j mice (postnatal day 1-old) were minced, and then poured into 1 mg/ml of Type 1 collagenase (Worthington) and shaken at 37° C. for 20 minutes. The obtained cell suspension was pipetted and allowed to stand, and then the supernatant was collected. Remaining cardiomyocytes after the collection of the supernatant were again poured into 1 mg/ml of Type 1 collagenase (Worthington) and shaken at 37° C. for 20 minutes, and then the supernatant was collected. This operation was repeated three times. The collected supernatant was suspended in MEM ([…]) containing 5% calf serum, and the cell suspension was poured into a culture dish. After 30 minutes, suspension cells were collected, and were resuspended in MEM containing 5% calf serum and then centrifuged (2000 rpm, 6 minutes). […]
The harvested oligodendrocyte precursor cells were seeded in a poly-L-lysine (Sigma)-coated plastic tissue culture dish, and cultured in a medium for 1 day (37° C., 5% CO2). […] Bromodeoxyuridine (BrdU) was subsequently added and cultured at 37° C. for 24 hours, and then the cells were collected; the BrdU uptake was then detected using the cell proliferation ELISA, BrdU colorimetric kit (Roche). As a control, the BrdU uptake was measured under the same conditions as those described above, except that the culture supernatant of cardiomyocytes was not added. […]

[2] = test system: oligodendrocyte precursor cells; assay: BrdU uptake by oligodendrocyte precursor cells with recombinant FGFs (Example 3); type: cell-based, C57BL/6j mice; conditions: FGF at 10, 30 or 100 ng/ml, vs saline control; FIG. 3
Description: Recombinant FGF15 (Abcam), FGF21 (R&D), or FGF23 (R&D) was diluted in saline solution immediately before use to prepare an each FGF-containing solution. Oligodendrocyte precursor cells were harvested from C57BL/6j mice (postnatal day 1-old) brains, as in Example 1.
Initially, the oligodendrocyte precursor cells were seeded in a poly-L-lysinde (Sigma)-coated plastic tissue culture dish, and cultured in the following medium for 1 day (37° C., 5% CO2). The medium used was DMEM containing 4 mM L-gludamine (Sigma), 1 mM sodium pyruvate (Sigma), 0.1% bovine serum albumin (Sigma), 50 μg/ml apo-Transferrin (Sigma), 5 μg/ml insulin (Sigma), 30 nM sodium selenite (Sigma), 10 nM biotin (Sigma), 10 nM hydrocortisone (Sigma), 10 ng/ml Platelet-Derived Growth Factor-AA (Peprotech), and 10 ng/ml basic fibroblast growth factor (Peprotech). Thereafter, each type of FGF-containing solution was added to the culture medium of oligodendrocyte precursor cells such that the concentration of each type of FGF was 10 ng/ml, 30 ng/ml, or 100 ng/ml, and the cells were cultured at 37° C. for 24 hours. BrdU was subsequently added and cultured at 37° C. for 24 hours, and then the cells were collected; the BrdU uptake was then detected using the cell proliferation ELISA, BrdU colorimetric kit (Roche). As a control, an equivalent amount of saline solution was used instead of the FGF21-containing solution, and the BrdU uptake was measured under the same conditions as those described above. This experiment studied three cases for each group.

Molecule | increase in the BrdU uptake by culture supernatant of cardiomyocytes [1] | BrdU uptake by the oligodendrocyte precursor cells [2]
CCN(CC)CCCCNc1ncc2cc(-c3cc(OC)cc(OC)c3)c(NC(=O)NC(C)(C)C)nc2n1 [PD173074] | suppressed | –
Cc1c[nH]c(/C=C2\C(=O)Nc3ccccc32)c1CCC(=O)O [SU5402] | suppressed | –
B1 | – | significant difference in the amounts of BrdU uptake was not observed
B2 | – | significant difference in the amounts of BrdU uptake was not observed

Source: patent US10293026B2, “Agent for preventing or treating demyelinating disease” (Osaka University, priority 2014, dated 2019)
